Test: Displacement of [125I]asialoorosomucoid from ASGP receptor

SMILES | Ki
CC(=O)N[C@H]1[C@H](OCCOCCOCCNC(=O)CCOCC(COCCC(=O)NCCOCCOCCO[C@@H]2O[C@H](CO)[C@H](O)[C@H](O)[C@H]2NC(C)=O)(COCCC(=O)NCCOCCOCCO[C@@H]2O[C@H](CO)[C@H](O)[C@H](O)[C@H]2NC(C)=O)NC(=O)CN)O[C@H](CO)[C@H](O)[C@@H]1O | 0.002 µM
O=C(CCCCO[C@@H]1O[C@H](CO)[C@H](O)[C@H](O)[C@H]1O)NCCCNC(=O)CCOCC(COCCC(=O)NCCCNC(=O)CCCCO[C@@H]1O[C@H](CO)[C@H](O)[C@H](O)[C@H]1O)(COCCC(=O)NCCCNC(=O)CCCCO[C@@H]1O[C@H](CO)[C@H](O)[C@H](O)[C@H]1O)NC(=O)CNC(=O)OCc1ccccc1 | 0.093 µM
COC(=O)CCCCC(=O)NCC(=O)NC(COCOCCOCCOCCOCCO[C@@H]1O[C@H](CO)[C@H](O)[C@H](O)[C@H]1O)(COCOCCOCCOCCOCCO[C@@H]1O[C@H](CO)[C@H](O)[C@H](O)[C@H]1O)COCOCCOCCOCCOCCO[C@@H]1O[C@H](CO)[C@H](O)[C@H](O)[C@H]1O | 0.2 µM
